Laboratory results reported in patent publication US20260265832A1, “ADAR1 INHIBITORS FOR TREATING CANCER” (INSTITUE OF CANCER RESEARCH ROYAL CANCER HOSPITAL, priority 2023, published 2026).

Key:
[1] = tested on: BRCA2-knockout DLD1 cells; test: Clonogenic survival and dose-response survival with 8-azaadenosine; assay type: cell-based; conditions: DLD1 BRCA2-KO vs BRCA2-wildtype; 8 days clonogenic, 7 days dose-response
Text: (§1) FIG. 7. A. Clonogenic survival of Brca1-wildtype and Brca1-mutant (Δ11) MEFs exposed to 8-azaadenosine for 8 days. B. Dose-response survival curves of Brca1-wildtype and Brca1-mutant (Δ11) MEFs exposed to increasing concentrations of 8-azaadenosine for 7 days. C. Clonogenic survival of BRCA2-wildtype and BRCA2-knockout DLD1 cells exposed to 8-azaadenosine for 8 days. D. Dose-response survival curves of BRCA2-wildtype and BRCA2-knockout DLD1 cells exposed to increasing concentrations of 8-azaadenosine for 7 days. All graphs show median. Error bars represent Standard Deviation (SD).

[2] = tested on: Brca1-mutant (Δ11) MEFs; test: as above; assay type: cell-based, mouse; conditions: MEF Brca1-Δ11 vs Brca1-wildtype; 8 days clonogenic, 7 days dose-response
Text: as §1

Compound: Nc1ncnc2c1nnn2[C@@H]1O[C@H](CO)[C@@H](O)[C@H]1O [8-azaadenosine, 3-(β-D-Ribofuranosyl)-3H-[1,2,3]triazolo[4,5-d]pyrimidin-7-amine]
- BRCA2 synthetic lethality (clonogenic survival, dose-response survival) [1]: BRCA2 synthetic lethality
- BRCA1 synthetic lethality (clonogenic survival, dose-response survival) [2]: elicited BRCA1 synthetic lethality
